Data published in PubChem BioAssay AID222 (DTP/NCI, 2004).
Several values for one entry are separate records, joined by “and”; a condition that tells them apart may be missing. Equal entries are not always repeated. Toxic doses and inconclusive results are not listed.

Test system: C57BL/6 mice, intracerebral ependymoblastoma, median survival T/C
Assay: NCI In Vivo Anticancer Drug Screen. Data for tumor model Ependymoblastoma (intracerebral) in C57BL/6 mice
Conditions: endpoint: median survival time, higher = longer survival
Description: The antitumor activity of compounds was measured in mice bearing transplantable tumors. Survival or tumor size were measured and the results are expressed as the measurement made in the treated group (T) divided by the measurement made in the vehicle treated control group (C). The tumor model used in this assay is Ependymoblastoma (intracerebral) in C57BL/6 mice

[1] = dose: 32.0 mg/kg/injection, schedule: Q01DX005 (ip), vehicle: Klucel (hydroxypropylcellulose) (HPC)
[2] = dose: 8.0 mg/kg/injection, schedule: Q01DX005 (ip), vehicle: saline
[3] = dose: 16.0 mg/kg/injection, schedule: Q01DX005 (ip), vehicle: saline
[4] = dose: 32.0 mg/kg/injection, schedule: Q01DX005 (ip), vehicle: saline
[5] = dose: 64.0 mg/kg/injection, schedule: Q01DX005 (ip), vehicle: saline
[6] = dose: 8.0 mg/kg/injection, schedule: Q01DX005 (ip), vehicle: Klucel (hydroxypropylcellulose) (HPC)
[7] = dose: 16.0 mg/kg/injection, schedule: Q01DX005 (ip), vehicle: Klucel (hydroxypropylcellulose) (HPC)
[8] = dose: 45.0 mg/kg/injection, schedule: Q01DX005 (ip), vehicle: saline with Tween-80
[9] = dose: 90.0 mg/kg/injection, schedule: Q01DX005 (ip), vehicle: saline with Tween-80

O=C(CCBr)N1CCN(C(=O)CCBr)CC1
T/C (dose: 2.5 mg/kg/injection, schedule: Q01DX005 (ip), vehicle: saline with Tween-80): 98 % of control
T/C (dose: 5.0 mg/kg/injection, schedule: Q01DX005 (ip), vehicle: saline with Tween-80): 103 % of control
T/C (dose: 10.0 mg/kg/injection, schedule: Q01DX005 (ip), vehicle: saline with Tween-80): 92 % of control
T/C (dose: 20.0 mg/kg/injection, schedule: Q01DX005 (ip), vehicle: saline with Tween-80): 105 % of control
T/C (dose: 40.0 mg/kg/injection, schedule: Q01DX005 (ip), vehicle: saline with Tween-80): 105 % of control
T/C (dose: 80.0 mg/kg/injection, schedule: Q01DX005 (ip), vehicle: saline with Tween-80): 111 % of control

NC(CSC(c1ccccc1)(c1ccccc1)c1ccccc1)C(=O)O (stereo not given)
T/C [1]: 99 % of control
T/C (dose: 64.0 mg/kg/injection, schedule: Q01DX005 (ip), vehicle: Klucel (hydroxypropylcellulose) (HPC)): 109 % of control

CCN(CC)CCNc1ccc(CO)c2sc3ccccc3c(=O)c12
T/C (dose: 2.0 mg/kg/injection, schedule: Q01DX005 (ip), vehicle: saline): 94 % of control
T/C (dose: 4.0 mg/kg/injection, schedule: Q01DX005 (ip), vehicle: saline): 104 % of control
T/C [2]: 104 % of control
T/C [3]: 101 % of control
T/C [4]: 111 % of control
T/C [5]: 119 % of control

CCC1=C[C@H]2CN(CCc3c([nH]c4ccccc34)[C@@](C(=O)OC)(c3cc4c(cc3OC)N(C)[C@H]3[C@@](O)(C(=O)OC)[C@H](OC(C)=O)[C@]5(CC)C=CCN6CC[C@]43[C@@H]65)C2)C1
T/C (dose: 0.05 mg/kg/injection, schedule: Q01DX005 (ip), vehicle: saline): 100 % of control
T/C (dose: 0.1 mg/kg/injection, schedule: Q01DX005 (ip), vehicle: saline): 108 % of control
T/C (dose: 0.2 mg/kg/injection, schedule: Q01DX005 (ip), vehicle: saline): 110 % of control
T/C (dose: 0.4 mg/kg/injection, schedule: Q01DX005 (ip), vehicle: saline): 103 % of control
T/C (dose: 0.8 mg/kg/injection, schedule: Q01DX005 (ip), vehicle: saline): 102 % of control
T/C (dose: 1.6 mg/kg/injection, schedule: Q01DX005 (ip), vehicle: saline): 105 % of control

O=C(NP(=O)(N1CC1)N1CC1)c1cc(I)ccc1I
T/C [6]: 106 % of control
T/C (dose: 8.0 mg/kg/injection, schedule: Q01DX005 (ip), vehicle: saline with Tween-80): 91 % of control and 104 % of control
T/C [2]: 102 % of control and 107 % of control
T/C [7]: 113 % of control
T/C (dose: 16.0 mg/kg/injection, schedule: Q01DX005 (ip), vehicle: saline with Tween-80): 101 % of control and 106 % of control
T/C [3]: 102 % of control and 119 % of control
T/C [1]: 120 % of control
T/C (dose: 32.0 mg/kg/injection, schedule: Q01DX005 (ip), vehicle: saline with Tween-80): 101 % of control
T/C [4]: 113 % of control
T/C [5]: 119 % of control and 124 % of control

Nc1ccc(C(=O)O)c(O)c1
T/C (dose: 67.5 mg/kg/injection, schedule: Q01DX005 (ip), vehicle: saline with Tween-80): 103 % of control
T/C (dose: 135.0 mg/kg/injection, schedule: Q01DX005 (ip), vehicle: saline with Tween-80): 94 % of control
T/C (dose: 270.0 mg/kg/injection, schedule: Q01DX005 (ip), vehicle: saline with Tween-80): 86 % of control

COS(C)(=O)=O
T/C [3]: 113 % of control

ClC1C(Cl)C(Cl)C(Cl)C(Cl)C1Cl (stereo not given)
T/C [8]: 96 % of control and 87 % of control
T/C [9]: 94 % of control and 98 % of control
T/C (dose: 180.0 mg/kg/injection, schedule: Q01DX005 (ip), vehicle: saline with Tween-80): 107 % of control
T/C (dose: 360.0 mg/kg/injection, schedule: Q01DX005 (ip), vehicle: saline with Tween-80): 96 % of control and 103 % of control

CC1CCC(NC(=O)N(CCCl)N=O)CC1 (stereo not given)
T/C (dose: 8.0 mg/kg/injection, schedule: Q01DX001 (ip), vehicle: saline with Tween-80): 99 % of control
T/C (dose: 8.0 mg/kg/injection, schedule: Q01DX005 (oral), vehicle: Klucel (hydroxypropylcellulose) (HPC)): 156 % of control
T/C (dose: 16.0 mg/kg/injection, schedule: Q01DX001 (ip), vehicle: saline with Tween-80): 114 % of control
T/C (dose: 16.0 mg/kg/injection, schedule: Q01DX005 (oral), vehicle: Klucel (hydroxypropylcellulose) (HPC)): 151 % of control
T/C (dose: 32.0 mg/kg/injection, schedule: Q01DX001 (ip), vehicle: saline with Tween-80): 109 % of control
T/C (dose: 32.0 mg/kg/injection, schedule: Q01DX001 (oral), vehicle: Klucel (hydroxypropylcellulose) (HPC)): 97 % of control
T/C (dose: 64.0 mg/kg/injection, schedule: Q01DX001 (ip), vehicle: saline with Tween-80): 95 % of control and 109 % of control
T/C (dose: 64.0 mg/kg/injection, schedule: Q01DX001 (oral), vehicle: Klucel (hydroxypropylcellulose) (HPC)): 102 % of control
T/C (dose: 128.0 mg/kg/injection, schedule: Q01DX001 (ip), vehicle: saline with Tween-80): 98 % of control and 102 % of control
T/C (dose: 128.0 mg/kg/injection, schedule: Q01DX001 (oral), vehicle: Klucel (hydroxypropylcellulose) (HPC)): 102 % of control
T/C (dose: 256.0 mg/kg/injection, schedule: Q01DX001 (ip), vehicle: saline with Tween-80): 97 % of control
T/C (dose: 256.0 mg/kg/injection, schedule: Q01DX001 (oral), vehicle: Klucel (hydroxypropylcellulose) (HPC)): 95 % of control
T/C (dose: 512.0 mg/kg/injection, schedule: Q01DX001 (ip), vehicle: saline with Tween-80): 92 % of control
T/C (dose: 512.0 mg/kg/injection, schedule: Q01DX001 (oral), vehicle: Klucel (hydroxypropylcellulose) (HPC)): 90 % of control

CS(C)=O
T/C (dose: 1.5 grams/kg/injection, schedule: Q01DX005 (ip), vehicle: saline): 103 % of control
T/C (dose: 6.0 grams/kg/injection, schedule: Q01DX005 (ip), vehicle: saline): 103 % of control

COc1cccc2c1C(=O)c1c(O)c3c(c(O)c1C2=O)C[C@@](O)(/C(C)=N/NC(=O)c1ccccc1)C[C@@H]3OC1CC(N)C(O)C(C)O1 (stereo not given in full)
T/C (dose: 1.0 mg/kg/injection, schedule: Q01DX009 (ip), vehicle: saline): 108 % of control
T/C (dose: 2.0 mg/kg/injection, schedule: Q01DX005 (ip), vehicle: saline with Tween-80): 100 % of control
T/C (dose: 2.0 mg/kg/injection, schedule: Q01DX009 (ip), vehicle: saline): 99 % of control
T/C (dose: 4.0 mg/kg/injection, schedule: Q01DX005 (ip), vehicle: saline with Tween-80): 103 % of control
T/C (dose: 4.0 mg/kg/injection, schedule: Q01DX009 (ip), vehicle: saline): 113 % of control

O=C(O)CCCc1ccc(N(CCCl)CCCl)cc1
T/C (dose: 0.12 mg/kg/injection, schedule: Q01DX005 (ip), vehicle: Klucel (hydroxypropylcellulose) (HPC)): 115 % of control
T/C (dose: 0.25 mg/kg/injection, schedule: Q01DX005 (ip), vehicle: Klucel (hydroxypropylcellulose) (HPC)): 110 % of control
T/C (dose: 1.0 mg/kg/injection, schedule: Q01DX005 (ip), vehicle: Klucel (hydroxypropylcellulose) (HPC)): 100 % of control
T/C (dose: 2.0 mg/kg/injection, schedule: Q01DX001 (ip), vehicle: Klucel (hydroxypropylcellulose) (HPC)): 100 % of control
T/C (dose: 2.0 mg/kg/injection, schedule: Q01DX005 (ip), vehicle: Klucel (hydroxypropylcellulose) (HPC)): 100 % of control and 111 % of control and 120 % of control
T/C (dose: 4.0 mg/kg/injection, schedule: Q01DX001 (ip), vehicle: Klucel (hydroxypropylcellulose) (HPC)): 106 % of control
T/C (dose: 4.0 mg/kg/injection, schedule: Q01DX005 (ip), vehicle: Klucel (hydroxypropylcellulose) (HPC)): 107 % of control and 109 % of control and 122 % of control
T/C (dose: 8.0 mg/kg/injection, schedule: Q01DX001 (ip), vehicle: Klucel (hydroxypropylcellulose) (HPC)): 105 % of control
T/C [6]: 109 % of control and 110 % of control and 122 % of control
T/C [7]: 96 % of control and 122 % of control

C1OC1CN1CCN(CC2CO2)CC1 (stereo not given)
T/C (dose: 3.12 mg/kg/injection, schedule: Q01DX005 (ip), vehicle: saline): 101 % of control
T/C (dose: 6.25 mg/kg/injection, schedule: Q01DX005 (ip), vehicle: saline): 97 % of control
T/C (dose: 25.0 mg/kg/injection, schedule: Q01DX005 (ip), vehicle: saline): 98 % of control

ClC(Cl)=C(Cl)Cl
T/C (dose: 22.0 mg/kg/injection, schedule: Q01DX005 (ip), vehicle: saline with Tween-80): 111 % of control
T/C [8]: 90 % of control
T/C [9]: 88 % of control and 92 % of control
